Experiments:
phBCCPPurT = molecular target: T1, phBCCPPurT (Pyrococcus horikoshii, UniProt O58056); test: biochemical; format: binding; settings: read-out: apparent Kd
T1 construct: gene purT

SEC = molecular target: the molecule itself; test: SEC

T1 sequence (O58056 whole entry): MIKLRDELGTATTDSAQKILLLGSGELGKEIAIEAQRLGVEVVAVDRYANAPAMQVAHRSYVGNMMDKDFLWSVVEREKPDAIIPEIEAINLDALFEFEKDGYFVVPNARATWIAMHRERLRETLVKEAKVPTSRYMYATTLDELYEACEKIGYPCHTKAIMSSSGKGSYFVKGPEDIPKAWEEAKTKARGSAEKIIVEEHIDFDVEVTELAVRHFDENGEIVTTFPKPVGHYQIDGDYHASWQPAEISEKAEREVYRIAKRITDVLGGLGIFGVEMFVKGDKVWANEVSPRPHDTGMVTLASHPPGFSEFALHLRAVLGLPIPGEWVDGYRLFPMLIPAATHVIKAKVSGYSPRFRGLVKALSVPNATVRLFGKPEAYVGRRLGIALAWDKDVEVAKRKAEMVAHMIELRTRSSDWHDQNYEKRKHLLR

## Nc1ncnc2c1ncn2[C@@H]1O[C@H](CO[P@](=O)(O)O[P@](=O)(O)O[P@@](=O)(O)S)[C@@H](O)[C@H]1O [ATPγS]
phBCCPPurT
  Kd: 41.8 ± 7.21 µM

B1: Glycinamide-RNase-transformylase T from Mycobacterium tuberculosis (enzyme)
chain: MIDGWTEEQHEPTVRHERPAAPQDVRRVMLLGSAEPSRELAIALQGLGAEVIAVDGYVGAPAHRIADQSVVVTMTDAEELTAVIRRLQPDFLVTVTAAVSVDALDAVEQADGECTELVPNARAVRCTADREGLRRLAADQLGLPTAPFWFVGSLGELQAVAVHAGFPLLVSPVAGVAGQGSSVVAGPNEVEPAWQRAAGHQVQPQTGGVSPRVCAESVVEIEFLVTMIVVCSQGPNGPLIEFCAPIGHRDADAGELESWQPQKLSTAALDAAKSIAARIVKALGGRGVFGVELMINGDEVYFADVTVCPAGSAWVTVRSQRLSVFELQARAILGLAVDTLMISPGAARVINPDHTAGRAAVGAAPPADALTGALGVPESDVVIFGRGLGVALATAPEVAIARERAREVASRLNVPDSRE
notes: also called MtbPurT; PurT
SEC
  stoichiometry N: 2

— paper PMC6968694 (Emerging Microbes & Infections, 2020)
